Patent US6387905B2, “Compounds useful for inhibition of farnesyl protein transferase” (Schering Corporation, priority 1996, dated 2002)
Read-outs that look alike come from different tables or passages of the source.

Assays:
[1] = target: farnesyl protein transferase (FPT), H-ras (Homo sapiens, UniProt P49354+P49356); assay: FPT IC50 (H-ras), inhibition of farnesyl protein transferase, in vitro enzyme assay; assay type: biochemical
Protocol: (§1) FPT IC50 (inhibition of farnesyl protein transferase, in vitro enzyme assay) and COS Cell IC50 (Cell-Based Assay) were determined following the assay procedures described in WO 95/10516, published Apr. 20, 1995. GGPT IC50 (inhibition of geranylgeranyl protein transferase, in vitro enzyme assay), Cell Mat Assay, and anti-tumor activity (in vivo anti-tumor studies) could be determined by the assay procedures described in WO 95/10516. The disclosure of WO 95/10516 is incorporated herein by reference thereto.

COS Cell = COS Cell IC50 (Cell-Based Assay)
Protocol: as §1

Human tumor cells = assay: Soft Agar Assay (anchorage-independent growth); assay type: cell-based; settings: Table 5, read-out: Soft Agar IC50
Protocol: Anchorage-independent growth is a characteristic of tumorgenic cell lines. Human tumor cells are suspended in growth medium containing 0.3% agarose and an indicated concentration of a farnesyl transferase inhibitor. The solution is overlayed onto growth medium solidified with 0.6% agarose containing the same concentration of farnesyl transferase inhibitor as the top layer. After the top layer is solidified, plates are incubated for 10-16 days at 37° C. under 5% CO2 to allow colony outgrowth. After incubation, the colonies are stained by overlaying the agar with a solution of MTT (3-[4,5-dimethyl-thiazol-2-yl]-2,5-diphenyltetrazolium bromide, Thiazolyl blue) (1 mg/mL in PBS). Colonies can be counted and the IC50's can be determined.

[2] = COS, Table 5, read-out: Cos Cell IC50
[3] = H-ras, read-out: FPT IC50 (H-ras)
[4] = Table 3, H-ras, read-out: FPT IC50 (nM) (H-ras)

IC50 ([1]; Table 4, read-out: FPT IC50) [nM]	IC50 (Human tumor cells; Homo sapiens) [nM]	SMILES	IC50 (COS Cell; [2]) [nM]	further results
0.7	> 500	CC(C)(C)OC(=O)N1CC(O)CC1C(=O)N1CCC(CC(=O)N2CCC(C3c4ncc(Br)cc4CCc4cc(Cl)cc(Br)c43)CC2)CC1 (stereo not shown) [Example 24.0-B]	100	
9.3	> 500	O=C(C(=O)N1CCC(CC(=O)N2CCC([C@H]3c4ncc(Br)cc4CCc4cc(Cl)cc(Br)c43)CC2)CC1)c1cccs1 [Cmpd 81.0-B]	28	
	> 500	COC(=O)C(=O)N1CCC(CC(=O)N2CCC([C@H]3c4ncc(Br)cc4CCc4cc(Cl)cc(Br)c43)CC2)CC1 [Example 104.0-B]	40	IC50 [1, 3]: 4.6 nM
3.2	240	O=C1NC(=O)C(CC(=O)N2CCC(CC(=O)N3CCC([C@H]4c5ncc(Br)cc5CCc5cc(Cl)cc(Br)c54)CC3)CC2)N1 (stereo partly shown) [Cmpd 77.0-B]	14	IC50 (Human tumor cells): 214 nM
3.3	240	NC(=O)CCCCCC(=O)N1CCC(CC(=O)N2CCC([C@H]3c4ncc(Br)cc4CCc4cc(Cl)cc(Br)c43)CC2)CC1 [Cmpd 71.0-B]	19	
2.2	45	NC(=O)CC(O)CC(=O)N1CCC(CC(=O)N2CCC([C@H]3c4ncc(Br)cc4CCc4cc(Cl)cc(Br)c43)CC2)CC1 (stereo partly shown) [Cmpd 92.0-B]	15	
6.7		CCOC(CC(=O)N1CCC(CC(=O)N2CCC([C@H]3c4ncc(Br)cc4CCc4cc(Cl)cc(Br)c43)CC2)CC1)OCC [Cmpd 76.0-B]		
2.5	190	NC(=O)CCC(=O)N1CCC(CC(=O)N2CCC([C@H]3c4ncc(Br)cc4CCc4cc(Cl)cc(Br)c43)CC2)CC1 [Cmpd 69.0-B]	25	
3.5		NC(=O)CCCCC(=O)N1CCC(CC(=O)N2CCC([C@H]3c4ncc(Br)cc4CCc4cc(Cl)cc(Br)c43)CC2)CC1 [Cmpd 67.0-B]		
18		CC(C)(C)OC(=O)NCCC(=O)N1CCC(CC(=O)N2CCC([C@H]3c4ncc(Br)cc4CCc4cc(Cl)cc(Br)c43)CC2)CC1 [Example 86.0-B]		
3.8		NCCCC(=O)N1CCC(CC(=O)N2CCC([C@H]3c4ncc(Br)cc4CCc4cc(Cl)cc(Br)c43)CC2)CC1 [Cmpd 90.0-B]		

Continued, compound first:

SMILES	IC50 ([1]; Table 4, read-out: FPT IC50) [nM]	IC50 (Human tumor cells; Homo sapiens) [nM]	IC50 (COS Cell; [2]) [nM]	further results
NC(=O)CCCCC(=O)N1CCC(CC(=O)N2CCC([C@H]3c4ncc(Br)cc4CCc4cc(Cl)cc(Br)c43)CC2)CC1 [Example 108.0-B]				IC50 [1, 3]: 3.5 nM
CONC(=O)C(=O)N1CCC(CC(=O)N2CCC(C3c4ncc(Br)cc4CCc4cc(Cl)cc(Br)c43)CC2)CC1 (stereo not shown) [Cmpd 49.0-B]	2.1	> 500	38	
O=C(Cc1c[nH]cn1)N1CCC(CC(=O)N2CCC([C@H]3c4ncc(Br)cc4CCc4cc(Cl)cc(Br)c43)CC2)CC1 [Cmpd 30.0-B]	2.9	500	9	
O=C(CC1CCN(C(=O)Cn2cnc(-c3ccccc3)c2)CC1)N1CCC([C@H]2c3ncc(Br)cc3CCc3cc(Cl)cc(Br)c32)CC1 [Cmpd 20.0-B]	5.6			
O=C(O)C(=O)N1CCC(CC(=O)N2CCC([C@H]3c4ncc(Br)cc4CCc4cc(Cl)cc(Br)c43)CC2)CC1 [Cmpd 17.0-B]	1.2	> 500	> 1000	
NC(=O)CC(=O)N1CCC(CC(=O)N2CCC([C@H]3c4ncc(Br)cc4CCc4cc(Cl)cc(Br)c43)CC2)CC1 [Cmpd 50.0-B]	3.3	95	< 10	
O=C(O)NC(=O)C(=O)N1CCC(CC(=O)N2CCC([C@H]3c4ncc(Br)cc4CCc4cc(Cl)cc(Br)c43)CC2)CC1 [Cmpd 59.0-B]	4	500	50	
CCOC(=O)c1c(C)ncn1CC(=O)N1CCC(CC(=O)N2CCC([C@H]3c4ncc(Br)cc4CCc4cc(Cl)cc(Br)c43)CC2)CC1 [Cmpd 21.0-B]	5.7	> 500		
NNC(=O)C(=O)N1CCC(CC(=O)N2CCC([C@H]3c4ncc(Br)cc4CCc4cc(Cl)cc(Br)c43)CC2)CC1 [Cmpd 32.0-B]	3.5	> 500	28	
CN(C)C(=O)C(=O)N1CCC(CC(=O)N2CCC([C@H]3c4ncc(Br)cc4CCc4cc(Cl)cc(Br)c43)CC2)CC1 [Cmpd 33.0-B]	2.1	> 120	10	
CNC(=O)C(=O)N1CCC(CC(=O)N2CCC([C@H]3c4ncc(Br)cc4CCc4cc(Cl)cc(Br)c43)CC2)CC1 [Cmpd 64.0-B]		130	10	
O=C(CC1CCN(C(=O)Cn2cncn2)CC1)N1CCC([C@H]2c3ncc(Br)cc3CCc3cc(Cl)cc(Br)c32)CC1 [Cmpd 57.0-B]	1.8	110	< 10	
O=C(OCc1ccccc1)c1cccn1CC(=O)N1CCC(CC(=O)N2CCC([C@H]3c4ncc(Br)cc4CCc4cc(Cl)cc(Br)c43)CC2)CC1 [Cmpd 55.0-B]	9.2	> 500	200	
O=C(NOCc1ccccc1)C(=O)N1CCC(CC(=O)N2CCC([C@H]3c4ncc(Br)cc4CCc4cc(Cl)cc(Br)c43)CC2)CC1 [Cmpd 60.0-B]	5.4	500	120	
O=C(O)c1cccn1CC(=O)N1CCC(CC(=O)N2CCC([C@H]3c4ncc(Br)cc4CCc4cc(Cl)cc(Br)c43)CC2)CC1 [Cmpd 52.0-B]	1.3	500	400	
CC(C)=NOCCC(=O)N1CCC(CC(=O)N2CCC([C@H]3c4ncc(Br)cc4CCc4cc(Cl)cc(Br)c43)CC2)CC1 [Example 23.0-B]				IC50 [1, 3]: 2.8 nM
O=C(CCN1CCCCC1)N1CCC(CC(=O)N2CCC([C@H]3c4ncc(Br)cc4CCc4cc(Cl)cc(Br)c43)CC2)CC1 [Cmpd 7.0-B]	< 2.6		43	
O=C(CC1CCN(C(=O)CN2CCS(=O)(=O)CC2)CC1)N1CCC(C2c3ncc(Br)cc3CCc3cc(Cl)cc(Br)c32)CC1 (single isomer, unassigned; (+)) [Example 23]				IC50 [1, 4]: 2.7 nM; IC50 (COS Cell; COS, Table 3, read-out: COS Cell IC50): 14 nM
O=C(NO)C(=O)N1CCC(CC(=O)N2CCC([C@H]3c4ncc(Br)cc4CCc4cc(Cl)cc(Br)c43)CC2)CC1 [Cmpd 58.0-B]	16			
CC(C)(C)OC(=O)N[C@@H](Cc1ccccc1)C(=O)N1CCC(CC(=O)N2CCC([C@H]3c4ncc(Br)cc4CCc4cc(Cl)cc(Br)c43)CC2)CC1 [Example 7]				IC50 [1, 4]: 31.7 nM
O=C(CO)N1CCC(CC(=O)N2CCC([C@H]3c4ncc(Br)cc4CCc4cc(Cl)cc(Br)c43)CC2)CC1 [Cmpd 37.0-B]	2.6	75		
CCOC(=O)c1c(C)ncn1CC(=O)N1CCC(CC(=O)N2CCC([C@H]3c4ncc(Br)cc4CCc4cc(Cl)cc(Br)c43)CC2)CC1 [Cmpd 53.0-B]	3.6		50	
COC(NC(=O)CC(=O)N1CCC(CC(=O)N2CCC([C@H]3c4ncc(Br)cc4CCc4cc(Cl)cc(Br)c43)CC2)CC1)C(C)C (stereo partly shown) [Cmpd 51.0-B]	8.1		280	
O=C(O)CCCC(=O)N1CCC(CC(=O)N2CCC([C@H]3c4ncc(Br)cc4CCc4cc(Cl)cc(Br)c43)CC2)CC1 [Example 19.0-B]	1.1			IC50 (COS Cell; COS, read-out: Cos Cell IC50, Table 5): 17.5 nM; IC50 (COS Cell; read-out: Cos Cell IC50, Table 5): < 10 nM
O=C(CC1CCN(C(=O)CN2C(=O)CSC2=O)CC1)N1CCC([C@H]2c3ncc(Br)cc3CCc3cc(Cl)cc(Br)c32)CC1 [Example 79.0-B]				IC50 [1, 3]: 4.4 nM
